Measured values reported in patent US20210330611A1, “THERAPY FOR NEUROLOGICAL DISEASES/DISORDERS” (priority 2020, published 2021).
Where a name gives a salt, the structure may show the parent alone. Read-outs that look alike come from different tables or passages of the source.

Assays:
[1] = tested on: primary rat microglia; assay: Cell toxicity (dead cells, size <150 μm2) in coated fibrin (cFib) assay; details: for Fibrin % cell toxicity: primary microglia HTS, fibrin stimulation, decreased size (<150 μm^2) as marker of toxicity; for IC50: read-out: Cell Toxicity IC50 (uM) [cFib assay];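 for Fibrin % cell toxicity: share of dead cells sized under 150 µm2 at 10 µM in fibrin-stimulated microglia HTS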
[2] = tested on: fibrin-induced microglia activation; assay: Image-based assay of fibrin-induced microglia activation (HTS and dose response); format: cell-based, rat; details: for Fibrin % inhibition / inhibition at 10 µM: primary microglia HTS, fibrin stimulation; for inhibition at 10 µM: Rattus norvegicus, Microglia, read-out: Fibrin % inhibition
[3] = tested on: LPS-induced microglia activation; assay: Image-based assay of LPS-induced microglia activation (HTS and dose response); format: cell-based, rat; details: for LPS % inhibition / inhibition at 10 µM: primary microglia HTS, LPS stimulation; for inhibition at 10 µM: Rattus norvegicus, Microglia, read-out: LPS % inhibition
[4] = tested on: fibrin- and LPS-induced microglia activation; assay: cells; format: cell-based, rat; details: for Hit: HTS hit classification
[5] = tested on: primary rat microglia; assay: Cell toxicity (dead cells, size <150 μm2) in LPS assay; details: for LPS % cell toxicity: primary microglia HTS, LPS stimulation, decreased size (<150 μm^2) as marker of toxicity; for IC50: read-out: Cell Toxicity IC50 (uM) [LPS assay]
[6] = increased cell size (>800 μm^2) as marker of activation
[7] = quadrant by fibrin and LPS inhibition in HTS of 1907 compounds
[8] = 48 h, increased cell size (>800 μm^2) as marker of activation
[9] = Table 1, dose response 0.001-20 μM, triplicates, primary rat microglia, 48 h, read-out: Fibrin IC50
[10] = Table 3, read-out: Fibrin IC50 (uM) (Suppl. Table 7)
[11] = dose response, fibrin-induced microglia activation, read-out: Fibrin IC50
[12] = fibrin-induced microglia activation, dose response, read-out: Fibrin IC50 (uM) (Suppl. Table 7)
[13] = LPS-induced microglia activation, dose response, read-out: LPS IC50 (uM) (Suppl. Table 7)
[14] = Table 1, dose response 0.001-20 μM, triplicates, primary rat microglia, 48 h, read-out: LPS IC50
[15] = Table 3, read-out: LPS IC50 (uM) (Suppl. Table 7)
[16] = dose response, LPS-induced microglia activation, read-out: LPS IC50
[17] = HTS of 1907 compounds, quadrant by fibrin and LPS inhibition
[18] = hit classification in microglia HTS

## C[C@@H](O)[C@@H]1NC(=O)[C@H](CCCCN)NC(=O)[C@@H](Cc2c[nH]c3ccccc23)NC(=O)[C@H](Cc2ccccc2)NC(=O)[C@@H](NC(=O)[C@H](N)Cc2ccccc2)CSSC[C@@H](C(=O)N[C@H](CO)[C@@H](C)O)NC1=O [Octreotide]
[1]
  Fibrin % cell toxicity: 1%
[2]; [6]
  Fibrin % inhibition: 3%
[3]; [6]
  LPS % inhibition: −5%
[4]; [7]
  Quadrant (FIG. 5b): Q4
[5]
  LPS % cell toxicity: 1%

## CC1COc2c(N3CCN(C)CC3)c(F)cc3c(=O)c(C(=O)O)cn1c23 (centres unmarked) [Ofloxacin]
[1]
  Fibrin % cell toxicity: 1%
[2]; [6]
  inhibition at 10 µM: -13%
[3]; [8]
  inhibition at 10 µM: 16%
[4]; [7]
  Quadrant (FIG. 5b): Q4
[5]
  LPS % cell toxicity: 0%

## CO[C@H]1C[C@H](O[C@H]2[C@H](C)[C@@H](O[C@@H]3O[C@H](C)C[C@H](N(C)C)[C@H]3O)[C@@H](C)C[C@@]3(CO3)C(=O)[C@H](C)[C@@H](O)[C@@H](C)[C@@H](C)OC(=O)[C@@H]2C)O[C@@H](C)[C@@H]1O [Oleandomycin Phosphate]
[1]
  Fibrin % cell toxicity: 1%
[2]; [6]
  inhibition at 10 µM: -9%
[3]; [8]
  inhibition at 10 µM: 16%
[4]; [7]
  Quadrant (FIG. 5b): Q4
[5]
  LPS % cell toxicity: 0%

## CCCCCCCC/C=C\CCCCCCCC(=O)O [Oleic Acid]
[1]
  Fibrin % cell toxicity: 1%
[2]; [6]
  inhibition at 10 µM: 23%
[3]; [8]
  inhibition at 10 µM: 25%
[4]; [7]
  Quadrant (FIG. 5b): Q4
[5]
  LPS % cell toxicity: 1%

## CCCc1nc(C(C)(C)O)c(C(=O)OCc2oc(=O)oc2C)n1Cc1ccc(-c2ccccc2-c2nnn[nH]2)cc1 [Olmesartan Medoxomil]
[1]
  Fibrin % cell toxicity: 1%
[2]; [6]
  inhibition at 10 µM: -5%
[3]; [8]
  inhibition at 10 µM: 12%
[4]; [7]
  Quadrant (FIG. 5b): Q4
[5]
  LPS % cell toxicity: 0%

## CCCc1nc(C(C)(C)O)c(C(=O)O)n1Cc1ccc(-c2ccccc2-c2nnn[nH]2)cc1 [Olmesartan]
[1]
  Fibrin % cell toxicity: 0%
[2]; [6]
  inhibition at 10 µM: -13%
[3]; [8]
  inhibition at 10 µM: 18%
[4]; [7]
  Quadrant (FIG. 5b): Q4
[5]
  LPS % cell toxicity: 0%

## CN(C)CC/C=C1/c2ccccc2COc2ccc(CC(=O)O)cc21 [Olopatadine]
[1]
  Fibrin % cell toxicity: 1%
[2]; [6]
  inhibition at 10 µM: -42%
[3]; [8]
  inhibition at 10 µM: -9%
[4]; [7]
  Quadrant (FIG. 5b): Q4
[5]
  LPS % cell toxicity: 0%

## O=C(O)c1cc(/N=N/c2ccc(O)c(C(=O)O)c2)ccc1O [Olsalazine]
[1]
  Fibrin % cell toxicity: 1%
[2]; [6]
  inhibition at 10 µM: -36%
[3]; [8]
  inhibition at 10 µM: 22%
[4]; [7]
  Quadrant (FIG. 5b): Q4
[5]
  LPS % cell toxicity: 1%

## C[C@@H]1CN(c2c(F)c(F)c3c(=O)c(C(=O)O)cn(C4CC4)c3c2F)C[C@H](C)N1 [Orbifloxacin]
[1]
  Fibrin % cell toxicity: 0%
[2]; [6]
  inhibition at 10 µM: -18%
[3]; [8]
  inhibition at 10 µM: 15%
[4]; [7]
  Quadrant (FIG. 5b): Q4
[5]
  LPS % cell toxicity: 0%

## Cc1ncc([N+](=O)[O-])n1CC(O)CCl (centres unmarked) [Ornidazole]
[1]
  Fibrin % cell toxicity: 0%
[2]; [6]
  inhibition at 10 µM: -22%
[3]; [8]
  inhibition at 10 µM: 12%
[4]; [7]
  Quadrant (FIG. 5b): Q4
[5]
  LPS % cell toxicity: 0%

## CCOC(=O)C1=C[C@@H](OC(CC)CC)[C@H](NC(C)=O)[C@@H](N)C1 [Oseltamivir Phosphate]
[1]
  Fibrin % cell toxicity: 1%
[2]; [6]
  Fibrin % inhibition: −7%
[3]; [6]
  LPS % inhibition: 13%
[4]; [7]
  Quadrant (FIG. 5b): Q4
[5]
  LPS % cell toxicity: 0%

## CCOC(=O)C1=C[C@@H](OC(CC)CC)[C@H](NC(C)=O)[C@@H](N)C1 [Oseltamivir]
[1]
  Fibrin % cell toxicity: 1%
[2]; [6]
  Fibrin % inhibition: −28%
[3]; [8]
  inhibition at 10 µM: 26%
[4]; [7]
  Quadrant (FIG. 5b): Q4
[5]
  LPS % cell toxicity: 1%

## Cc1onc(-c2ccccc2)c1C(=O)N[C@@H]1C(=O)N2[C@@H]1SC(C)(C)[C@@H]2C(=O)[O-].[Na+] [Oxacillin Sodium]
[1]
  Fibrin % cell toxicity: 0%
[2]; [6]
  Fibrin % inhibition: −20%
[3]; [6]
  LPS % inhibition: 11%
[4]; [7]
  Quadrant (FIG. 5b): Q4
[5]
  LPS % cell toxicity: 0%

## O=C1[O][Pt]2([NH][C@@H]3CCCC[C@H]3[NH]2)[O]C1=O [Oxaliplatin, reference compound]
[1]; Table 3
  IC50: > 20 µM
[1]; cFib assay
  IC50: > 20 µM
[2]; [9]
  IC50: 5 µM
[2]; [10]
  IC50: 5 µM
[2]; [11]
  IC50: 5 µM
[2]; [12]
  IC50: 5 µM
[2]; compounds at 10 μM
  Fibrin % inhibition: 66%
[2]; [6]
  Fibrin % inhibition: 96%
[3]; [13]
  IC50: 15 µM
[3]; [14]
  IC50: 15 µM
[3]; [15]
  IC50: 15 µM
[3]; [16]
  IC50: 15 µM
[3]; compounds at 10 μM
  LPS % inhibition: 21%
[3]; [6]
  LPS % inhibition: 41%
[4]
  Hit: HIT (Hits were defined as molecules that exhibited greater than 50% inhibition of either fibrin or LPS activation)
[4]; [17]
  Quadrant (FIG. 5b): Q3
[4]; Table 1, screen at 10 μM
  Quadrant (FIG. 5b): Q3
[4]; Table 3
  Cherry-picked Hit (Suppl. Table 7): HIT (Hits were defined as molecules that exhibited greater than 50% inhibition of either fibrin or LPS activation)
[4]; Table 3, screen at 10 μM
  Quadrant (FIG. 5b): Q3
[4]; [18]
  Cherry-picked Hit (Suppl. Table 7): HIT (Hits were defined as molecules that exhibited greater than 50% inhibition of either fibrin or LPS activation)
[4]; [7]
  Quadrant (FIG. 5b): Q3
[4]; quadrant by fibrin and LPS inhibition, HTS at 10 μM
  Quadrant (FIG. 5b): Q3
[5]; LPS assay
  IC50: > 20 µM
[5]; Table 3
  IC50: > 20 µM

## O=C(O)CCc1nc(-c2ccccc2)c(-c2ccccc2)o1 [Oxaprozin]
[1]
  Fibrin % cell toxicity: 1%
[2]; [6]
  inhibition at 10 µM: 0%
[3]; [8]
  inhibition at 10 µM: 15%
[4]; [7]
  Quadrant (FIG. 5b): Q4
[5]
  LPS % cell toxicity: 1%

## NC(=O)N1c2ccccc2CC(=O)c2ccccc21 [Oxcarbazepine, Trileptal]
[1]
  Fibrin % cell toxicity: 1%
[2]; [6]
  Fibrin % inhibition: 3%
[3]; [6]
  LPS % inhibition: 35%
[4]; [7]
  Quadrant (FIG. 5b): Q4
[5]
  LPS % cell toxicity: 0%

## CCN(CC)CCOCCOC(=O)C(CC)(CC)c1ccccc1 [Oxeladin]
[1]
  Fibrin % cell toxicity: 1%
[2]; [6]
  inhibition at 10 µM: -27%
[3]; [8]
  inhibition at 10 µM: 6%
[4]; [7]
  Quadrant (FIG. 5b): Q4
[5]
  LPS % cell toxicity: 0%

## CN(C(=O)CN(CCO)CC(=O)N(C)C(C)(C)Cc1ccccc1)C(C)(C)Cc1ccccc1 [Oxethazaine]
[1]
  Fibrin % cell toxicity: 1%
[2]; [6]
  inhibition at 10 µM: 25%
[3]; [8]
  inhibition at 10 µM: 42%
[4]; [7]
  Quadrant (FIG. 5b): Q4
[5]
  LPS % cell toxicity: 0%

## COC(=O)Nc1nc2ccc([S+]([O-])c3ccccc3)cc2[nH]1 (centres unmarked) [Oxfendazole]
[1]
  Fibrin % cell toxicity: 0%
[2]; [6]
  inhibition at 10 µM: 10%
[3]; [8]
  inhibition at 10 µM: 20%
[4]; [7]
  Quadrant (FIG. 5b): Q4
[5]
  LPS % cell toxicity: 1%

## NCCc1cc(O)c(O)cc1O [Oxidopamine Hydrochloride]
[1]
  Fibrin % cell toxicity: 0%
[2]; [6]
  inhibition at 10 µM: 1%
[3]; [8]
  inhibition at 10 µM: 19%
[4]; [7]
  Quadrant (FIG. 5b): Q4
[5]
  LPS % cell toxicity: 0%

## O=C(O)c1ccc[n+]([O-])c1 [Oxiniacic Acid]
[1]
  Fibrin % cell toxicity: 1%
[2]; [6]
  inhibition at 10 µM: -6%
[3]; [8]
  inhibition at 10 µM: 12%
[4]; [7]
  Quadrant (FIG. 5b): Q4
[5]
  LPS % cell toxicity: 0%

## CCCOc1ccc2[nH]c(NC(=O)OC)nc2c1 [Oxybendazole, reference compound]
[1]
  Fibrin % cell toxicity: 2%
[1]; Table 3
  IC50: > 20 µM
[1]; cFib assay
  IC50: > 20 µM
[2]
  Fibrin Selectivity: 2
  Fibrin Selectivity (LOG10): 0.22
[2]; [9]
  IC50: 7 µM
[2]; [10]
  IC50: 7 µM
[2]; [11]
  IC50: 7 µM
[2]; [12]
  IC50: 7 µM
[2]; [6]
  Fibrin % inhibition: 78%
[3]; [13]
  IC50: 12 µM
[3]; [14]
  IC50: 12 µM
[3]; [15]
  IC50: 12 µM
[3]; [16]
  IC50: 12 µM
[3]; [6]
  LPS % inhibition: 15%
[4]
  Hit: HIT (Hits were defined as molecules that exhibited greater than 50% inhibition of either fibrin or LPS activation)
[4]; [17]
  Quadrant (FIG. 5b): Q3
[4]; Table 1, screen at 10 μM
  Quadrant (FIG. 5b): Q3
[4]; Table 3
  Cherry-picked Hit (Suppl. Table 7): HIT (Hits were defined as molecules that exhibited greater than 50% inhibition of either fibrin or LPS activation)
[4]; Table 3, screen at 10 μM
  Quadrant (FIG. 5b): Q3
[4]; [18]
  Cherry-picked Hit (Suppl. Table 7): HIT (Hits were defined as molecules that exhibited greater than 50% inhibition of either fibrin or LPS activation)
[4]; [7]
  Quadrant (FIG. 5b): Q3
[5]
  LPS % cell toxicity: 1%
[5]; LPS assay
  IC50: > 20 µM
[5]; Table 3
  IC50: > 20 µM

## COc1ccc(C(=O)c2ccccc2)c(O)c1 [Oxybenzone]
[1]
  Fibrin % cell toxicity: 0%
[2]; [6]
  inhibition at 10 µM: -15%
[3]; [8]
  inhibition at 10 µM: 12%
[4]; [7]
  Quadrant (FIG. 5b): Q4
[5]
  LPS % cell toxicity: 0%

## CCCCOc1cc(C(=O)OCCN(CC)CC)ccc1N [Oxybuprocaine]
[1]
  Fibrin % cell toxicity: 1%
[2]; [6]
  inhibition at 10 µM: 7%
[3]; [8]
  inhibition at 10 µM: 11%
[4]; [7]
  Quadrant (FIG. 5b): Q4
[5]
  LPS % cell toxicity: 0%

## Cc1cc(C(C)(C)C)c(O)c(C)c1CC1=NCCN1 [Oxymetazoline]
[1]
  Fibrin % cell toxicity: 1%
[2]; [6]
  inhibition at 10 µM: -13%
[3]; [8]
  inhibition at 10 µM: 20%
[4]; [7]
  Quadrant (FIG. 5b): Q4
[5]
  LPS % cell toxicity: 0%
